Source: PMC6695839, “Interspecies Variation in NCMN-O-Demethylation in Liver Microsomes from Various Species” (Molecules, 2019)

T1: CYP1A in beagle dog liver microsomes (DLM) (Canis lupus familiaris, UniProt P56592)
T1 sequence (P56592 2-512): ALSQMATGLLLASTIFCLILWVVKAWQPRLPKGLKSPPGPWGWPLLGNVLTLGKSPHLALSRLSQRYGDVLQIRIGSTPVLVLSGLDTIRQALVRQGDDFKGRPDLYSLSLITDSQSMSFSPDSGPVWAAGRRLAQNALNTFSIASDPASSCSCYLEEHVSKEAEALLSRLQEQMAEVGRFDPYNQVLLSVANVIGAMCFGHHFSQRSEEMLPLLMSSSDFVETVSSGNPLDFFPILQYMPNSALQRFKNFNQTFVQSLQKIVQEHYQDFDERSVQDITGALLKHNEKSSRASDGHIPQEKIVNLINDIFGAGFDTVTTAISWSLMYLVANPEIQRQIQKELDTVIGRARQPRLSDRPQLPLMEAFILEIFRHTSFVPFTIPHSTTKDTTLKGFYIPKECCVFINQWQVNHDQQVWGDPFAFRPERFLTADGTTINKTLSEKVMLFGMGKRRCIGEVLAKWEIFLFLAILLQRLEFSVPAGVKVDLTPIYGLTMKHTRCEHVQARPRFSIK

T2: CYP1A in mouse liver microsomes (MLM) (Mus musculus, UniProt P00186)
T2 sequence (P00186 2-513): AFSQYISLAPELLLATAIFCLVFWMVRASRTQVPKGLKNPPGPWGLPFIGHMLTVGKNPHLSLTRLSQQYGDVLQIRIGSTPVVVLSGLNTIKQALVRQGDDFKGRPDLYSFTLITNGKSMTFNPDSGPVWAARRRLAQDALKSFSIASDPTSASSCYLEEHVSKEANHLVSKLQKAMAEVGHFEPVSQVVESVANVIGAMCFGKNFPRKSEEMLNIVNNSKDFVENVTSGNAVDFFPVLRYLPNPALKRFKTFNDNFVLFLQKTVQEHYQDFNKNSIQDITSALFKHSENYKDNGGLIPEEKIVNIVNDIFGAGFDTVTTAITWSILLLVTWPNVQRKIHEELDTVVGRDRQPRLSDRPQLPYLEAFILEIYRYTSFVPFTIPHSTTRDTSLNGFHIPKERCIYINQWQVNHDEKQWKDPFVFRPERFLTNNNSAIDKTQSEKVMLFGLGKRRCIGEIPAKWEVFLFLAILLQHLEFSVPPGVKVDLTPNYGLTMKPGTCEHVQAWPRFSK

T3: CYP1A in human liver microsomes (HLM) (Homo sapiens, UniProt P05177)
T3 sequence (P05177 2-516): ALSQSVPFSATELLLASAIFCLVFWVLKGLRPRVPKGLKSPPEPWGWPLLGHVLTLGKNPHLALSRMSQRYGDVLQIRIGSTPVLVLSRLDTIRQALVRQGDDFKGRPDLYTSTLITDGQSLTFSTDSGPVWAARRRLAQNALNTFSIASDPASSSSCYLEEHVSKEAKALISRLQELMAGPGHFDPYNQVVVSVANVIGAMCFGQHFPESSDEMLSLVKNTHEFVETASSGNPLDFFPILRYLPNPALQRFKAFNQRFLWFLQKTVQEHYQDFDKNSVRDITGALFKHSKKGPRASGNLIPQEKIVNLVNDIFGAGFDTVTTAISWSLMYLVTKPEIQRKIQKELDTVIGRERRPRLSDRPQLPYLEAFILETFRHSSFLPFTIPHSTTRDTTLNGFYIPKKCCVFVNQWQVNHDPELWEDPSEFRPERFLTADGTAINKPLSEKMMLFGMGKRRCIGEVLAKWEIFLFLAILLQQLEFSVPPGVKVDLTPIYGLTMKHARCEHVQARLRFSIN

B1: CYP1A2 (human) (Homo sapiens) (protein)
chain: MALSQSVPFSATELLLASAIFCLVFWVLKGLRPRVPKGLKSPPEPWGWPLLGHVLTLGKNPHLALSRMSQRYGDVLQIRIGSTPVLVLSRLDTIRQALVRQGDDFKGRPDLYTSTLITDGQSLTFSTDSGPVWAARRRLAQNALNTFSIASDPASSSSCYLEEHVSKEAKALISRLQELMAGPGHFDPYNQVVVSVANVIGAMCFGQHFPESSDEMLSLVKNTHEFVETASSGNPLDFFPILRYLPNPALQRFKAFNQRFLWFLQKTVQEHYQDFDKNSVRDITGALFKHSKKGPRASGNLIPQEKIVNLVNDIFGAGFDTVTTAISWSLMYLVTKPEIQRKIQKELDTVIGRERRPRLSDRPQLPYLEAFILETFRHSSFLPFTIPHSTTRDTTLNGFYIPKKCCVFVNQWQVNHDPELWEDPSEFRPERFLTADGTAINKPLSEKMMLFGMGKRRCIGEVLAKWEIFLFLAILLQQLEFSVPPGVKVDLTPIYGLTMKHARCEHVQARLRFSIN
B2: CYP1A2 (Rat) (Rattus norvegicus) (protein)
chain: MAFSQYISLAPELLLATAIFCLVFWVLRGTRTQVPKGLKSPPGPWGLPFIGHMLTLGKNPHLSLTKLSQQYGDVLQIRIGSTPVVVLSGLNTIKQALVKQGDDFKGRPDLYSFTLITNGKSMTFNPDSGPVWAARRRLAQDALKSFSIASDPTSVSSCYLEEHVSKEANHLISKFQKLMAEVGHFEPVNQVVESVANVIGAMCFGKNFPRKSEEMLNLVKSSKDFVENVTSGNAVDFFPVLRYLPNPALKRFKNFNDNFVLFLQKTVQEHYQDFNKNSIQDITGALFKHSENYKDNGGLIPQEKIVNIVNDIFGAGFETVTTAIFWSILLLVTEPKVQRKIHEELDTVIGRDRQPRLSDRPQLPYLEAFILEIYRYTSFVPFTIPHSTTRDTSLNGFHIPKECCIFINQWQVNHDEKQWKDPFVFRPERFLTNDNTAIDKTLSEKVMLFGLGKRRCIGEIPAKWEVFLFLAILLHQLEFTVPPGVKVDLTPSYGLTMKPRTCEHVQAWPRFSK
notes: purchased Research Institute for Liver Diseases (RILD, Shanghai, China) Lot.int066e1c

Key:
[1] = target: T1, CYP1A in beagle dog liver microsomes (DLM); test: Inhibition of NCMN-O-demethylation by CYP inhibitors in beagle dog liver microsomes; settings: DLM; 10 µM NCMN; 100 µM furafylline, 10 µM sulfaphenazole, 200 µM troleandomycin, 500 µM 1-ABT
Description: (§2) After pre-incubation at 37 °C for 3min, the incubation was commenced by addition of NADPH-generating system, maintained at 37 °C. The reaction was quenched with ice-cold acetonitrile (200 µL). The mixture was chilled, spun at 20,000× g for 20 min at 4 °C. All incubations throughout the study were done in three experiments.

[2] = test system: CYP1A in rat liver microsomes (RLM); test: Inhibition of NCMN-O-demethylation by CYP inhibitors in rat liver microsomes; settings: RLM; 10 µM NCMN; 100 µM furafylline, 10 µM sulfaphenazole, 200 µM troleandomycin, 500 µM 1-ABT
Description: as §2

[3] = target: T2, CYP1A in mouse liver microsomes (MLM); test: Inhibition of NCMN-O-demethylation by CYP inhibitors in mouse liver microsomes; settings: MLM; 10 µM NCMN; 100 µM furafylline, 10 µM sulfaphenazole, 200 µM troleandomycin, 500 µM 1-ABT
Description: as §2

[4] = test system: CYP1A in cynomolgus monkey liver microsomes (CyLM); test: Inhibition of NCMN-O-demethylation by CYP inhibitors in cynomolgus monkey liver microsomes; settings: CyLM; 10 µM NCMN; 100 µM furafylline, 10 µM sulfaphenazole, 200 µM troleandomycin, 500 µM 1-ABT
Description: as §2

[5] = test system: CYP1A in minipig liver microsomes (PLM); test: Inhibition of NCMN-O-demethylation by CYP inhibitors in minipig liver microsomes; settings: PLM; 10 µM NCMN; 100 µM furafylline, 10 µM sulfaphenazole, 200 µM troleandomycin, 500 µM 1-ABT
Description: as §2

[6] = target: T3, CYP1A in human liver microsomes (HLM); test: Inhibition of NCMN-O-demethylation by CYP inhibitors in human liver microsomes; settings: 10 µM NCMN, 100 µM furafylline, 10 µM sulfaphenazole, 200 µM troleandomycin, 500 µM 1-ABT
Description: as §2

[7] = substrate: COc1ccc2c3c(cccc13)C(=O)N(CCCC(=O)O)C2=O; test: Kinetic analysis of NCMN-O-demethylation in human CYP1A2; type: in vitro ADME; settings: other: CYP1A2 (human); substrate 1-150 µM; pH 7.4; 37.0 °C
Description: (§1) The formation rates of NCHN were within the linear range of the protein concentration and incubation time. NCMN (1, 2.5, 5, 7.5, 10, 25, 50, 75, 100 and 150 µM) was incubated with HLM, MLM, RLM, DLM, PLM, CyLM (0.25mg protein/mL) as well as rat CYP1A2 (100 nM) for 30min. […] .

[8] = substrate: COc1ccc2c3c(cccc13)C(=O)N(CCCC(=O)O)C2=O; test: Kinetic analysis of NCMN-O-demethylation in cDNA-expressed rat CYP1A2; type: in vitro ADME; settings: other: CYP1A2 (Rat), 100 nM; Michaelis-Menten; substrate 1-150 µM; pH 7.4; 37.0 °C
Description: as §1

Molecule | Inhibition of the formation of NCHN [1] | Inhibition of the formation of NCHN [2] | Inhibition of the formation of NCHN [3] | Inhibition of the formation of NCHN [4] | Inhibition of the formation of NCHN [5] | Inhibition of the formation of NCHN [6] | Km [7] | kcat [7] | Km [8] | kcat [8]
Nn1nnc2ccccc21 [ABT, 1-Aminobenzotriazole] | potently inhibit | potently inhibit | potently inhibit | potently inhibit | potently inhibit |  |  |  |  | 
Nc1ccc(S(=O)(=O)Nc2ccnn2-c2ccccc2)cc1 [sulfaphenazole] | less than 25% | less than 25% | less than 25% | less than 25% | less than 25% | less than 25% |  |  |  | 
B1 |  |  |  |  |  |  | 9.80 ± 0.67 µM | 32.06 ± 0.50 nmol/min/nmol CYP |  | 
B2 |  |  |  |  |  |  |  |  | 4.04 ± 0.16 µM | 7.48±0.05 nmol/min/nmol CYP
